In data set [1] the test system is M. smegmatis mc^2155 (ATCC 700084). The experiment in a line: Broth microdilution determination of minimum inhibitory concentrations. In kind it is cell-based, Mycobacterium smegmatis. Background: In broth dilution the organism is exposed to a series of concentrations in liquid medium.
The subject of data set [2] is M. smegmatis biofilms. The experiment in a line: Biofilm inhibition assay. In kind it is cell-based, Mycobacterium smegmatis.
Data set [3] concerns M. smegmatis biofilms. The experiment in a line: Synergy dispersion assay of compound with INH/RIF on pre-formed biofilms. In kind it is cell-based, Mycobacterium smegmatis. The note with it: INH 256 + RIF 128 µg mL^−1.
The nature of data set [4]: in vitro. The conditions noted are these: mouse, plasma, pH 7.4.
Data set [5] in a line: Microsome stability assay. The conditions noted are these: male, CD-1, mouse, microsomes, pH 7.4.
The nature of data set [6]: in vitro. The conditions noted are these: male, CD-1, mouse, microsomes, pH 7.4.
[7] abbreviates: Table 3, trifluoromethyl 2-AIs, no unit printed for these values.

These results are taken from publication PMC6682311 (ChemMedChem, 2019).

As a reminder, the IC50 is the point on the concentration scale where inhibition reaches its midpoint. Read a high IC50 as weaker potency in that assay. What is called half-life is the time in which the quantity being followed falls by half. Consider `CCCCCCc1ccc(-c2nc(N)[nH]c2C(F)(F)F)cc1` [Compound 12g, 4-(4-Hexylphenyl)-5-(trifluoromethyl)-1H-imidazol-2-amine], for which, in data set [1] (Table 2, 4,5 substituted 2-AIs, unit printed in text b20 only), the MIC was above 200 µM. Besides, half-maximal inhibition in the data set with M. smegmatis biofilms [2] (Table 2, highest concentration tested 50 µM) (IC50) was put at 6.8 ± 0.9 µM. In the data set with M. smegmatis biofilms [3], the “fold reduction in EC50 with antibiotics versus compound alone” value is given as “three-fold reduction”. Moreover, the figures for the half-life at 100 µM (in the data set “in vitro [4]”; in data set [5]) were 4.43 h and 0.978 h, respectively.
Molecule `CCCOc1ccc(-c2nc(N)[nH]c2C(F)(F)F)cc1` [Compound 12h, 4-(4-Propoxyphenyl)-5-(trifluoromethyl)-1H-imidazol-2-amine] came in with an MIC in data set [1] (setting [7]) of 200.
On the same count and under the same terms, in the case of `CCCCOc1ccc(-c2nc(N)[nH]c2C(F)(F)F)cc1` [Compound 12i, 4-(4-Butoxyphenyl)-5-(trifluoromethyl)-1H-imidazol-2-amine] it was 200.
For `CCCCCOc1ccc(-c2nc(N)[nH]c2C(F)(F)F)cc1` [Compound 12j, 4-(4-(Pentyloxy)phenyl)-5-(trifluoromethyl)-1H-imidazol-2-amine], in data set [1] (setting [7]), the MIC is 200. This molecule also returned an IC50 with M. smegmatis biofilms [2] (Table 3) of 7.4 ± 0.6 µM. Besides, the “fold reduction in EC50 with antibiotics versus compound alone” value with M. smegmatis biofilms [3] is “four-fold reduction”. Besides, the figures for the half-life at 100 µM (in the data set “in vitro [4]”; in data set [5]) were 4.8 h and 1.02 h, respectively.
The molecule `CCOc1ccc(NC(C)=O)cc1` [Phenacetin] returned a half-life at 100 µM in the data set “in vitro [6]” of 0.59 h.
`CC(C)NCC(O)COc1cccc2ccccc12` (centres unmarked) [Propanolol, reference compound]: the half-life at 100 µM in “in vitro [4]” worked out at 0.343 h.
